Literature values, collected in patent US6020121A (priority 1996, dated 2000).

Test system: production of several toxins
Conditions: Agr independent; cited from earlier work

## CCCCCCCCCCCC(=O)OCC(O)CO (stereo not shown) [GML, Glycerol monolaureate, reference compound]
  production of several toxins: lower the production of several toxins in an Agr independent manner
